In ChEMBL document CHEMBL4014296, “Constituents with potent α-glucosidase inhibitory activity from Pueraria lobata (Willd.) ohwi” (Bioorg Med Chem Lett, 2017):
Activity calls are given as the source filed them. The rule behind the calls is not given here.

Tests used:
[1] = Inhibition of alpha glucosidase (unknown origin) using alpha PNPG as substrate at 0.5 mg/mL preincubated for 15 mins followed by substrate addition measured after 15 mins relative to control; details: Homo sapiens
[2] = Inhibition of alpha glucosidase (unknown origin) using alpha PNPG as substrate at 0.25 mg/mL preincubated for 15 mins followed by substrate addition measured after 15 mins relative to control; details: Homo sapiens
[3] = Inhibition of alpha glucosidase (unknown origin) using alpha PNPG as substrate at 0.125 mg/mL preincubated for 15 mins followed by substrate addition measured after 15 mins relative to control; details: Homo sapiens
[4] = Inhibition of alpha glucosidase (unknown origin) using alpha PNPG as substrate at 0.0625 mg/mL preincubated for 15 mins followed by substrate addition measured after 15 mins relative to control; details: Homo sapiens
[5] = Inhibition of alpha glucosidase (unknown origin) using alpha PNPG as substrate preincubated for 15 mins followed by substrate addition measured after 15 mins; parameters: species or system Homo sapiens; details: for inhibition: Homo sapiens
[6] = Solubility of the compound; format: physicochemical
Homo sapiens [7] = organism: Homo sapiens; test: Potency index, ratio of acarbose IC50 to compound IC50 for alpha glucosidase (unknown origin)
Homo sapiens [8] = organism: Homo sapiens; test: Irreversible inhibition of alpha glucosidase (unknown origin) using alpha PNPG as substrate at 0.005 mg/mL
Homo sapiens [9] = organism: Homo sapiens; test: Inhibition of alpha glucosidase (unknown origin) using alpha PNPG as substrate at 10 mg/mL preincubated for 15 mins followed by substrate addition measured after 15 mins relative to control
Homo sapiens [10] = organism: Homo sapiens; test: Inhibition of alpha glucosidase (unknown origin) using alpha PNPG as substrate at 1.25 mg/mL preincubated for 15 mins followed by substrate addition measured after 15 mins relative to control
Homo sapiens [11] = organism: Homo sapiens; test: Inhibition of alpha glucosidase (unknown origin) using alpha PNPG as substrate at 5 mg/mL preincubated for 15 mins followed by substrate addition measured after 15 mins relative to control
Homo sapiens [12] = organism: Homo sapiens; test: Inhibition of alpha glucosidase (unknown origin) using alpha PNPG as substrate at 2.5 mg/mL preincubated for 15 mins followed by substrate addition measured after 15 mins relative to control
Homo sapiens [13] = organism: Homo sapiens; test: Inhibition of alpha glucosidase (unknown origin) using alpha PNPG as substrate at 0.00391 mg/mL preincubated for 15 mins followed by substrate addition measured after 15 mins relative to control
Homo sapiens [14] = organism: Homo sapiens; test: Inhibition of alpha glucosidase (unknown origin) using alpha PNPG as substrate at 0.00195 mg/mL preincubated for 15 mins followed by substrate addition measured after 15 mins relative to control
Homo sapiens [15] = organism: Homo sapiens; test: Inhibition of alpha glucosidase (unknown origin) using alpha PNPG as substrate at 9.77 10^-4mg/ml preincubated for 15 mins followed by substrate addition measured after 15 mins relative to control
Homo sapiens [16] = organism: Homo sapiens; test: Inhibition of alpha glucosidase (unknown origin) using alpha PNPG as substrate at 4.88 10^-4mg/ml preincubated for 15 mins followed by substrate addition measured after 15 mins relative to control
Homo sapiens [17] = organism: Homo sapiens; test: Reversible inhibition of alpha glucosidase (unknown origin) using alpha PNPG as substrate at 0.01 mg/mL
Homo sapiens [18] = organism: Homo sapiens; test: Non-competitive inhibition of alpha glucosidase (unknown origin) using varying levels of alpha PNPG substrate at 0.01 mg/mL by Lineweaver-Burk plot analysis
Homo sapiens [19] = organism: Homo sapiens; test: Inhibition of alpha glucosidase (unknown origin) using alpha PNPG as substrate at 0.03125 mg/mL preincubated for 15 mins followed by substrate addition measured after 15 mins relative to control
Homo sapiens [20] = organism: Homo sapiens; test: Inhibition of alpha glucosidase (unknown origin) using alpha PNPG as substrate at 0.01563 mg/mL preincubated for 15 mins followed by substrate addition measured after 15 mins relative to control
Homo sapiens [21] = organism: Homo sapiens; test: Inhibition of alpha glucosidase (unknown origin) using alpha PNPG as substrate at 0.00781 mg/mL preincubated for 15 mins followed by substrate addition measured after 15 mins relative to control

Structure (SMILES)	inhibition [1] [%]	inhibition [2] [%]	inhibition [3] [%]	inhibition [4] [%]	IC50 [5] [µM]	inhibition [5]	other results
CC1(C)C=Cc2cc3c(cc2O1)O[C@@H]1c2ccc(O)cc2OC[C@@]31O	86	60.1	49.9	42.5	182 to 379	Dose-dependent effect	
COc1ccc2c(=O)cc(C(O)Cc3ccc(O)cc3)oc2c1 (stereo not drawn)							solubility [6]: Insoluble
CC(C)=CCC/C(C)=C/Cc1cc2c3c(oc2cc1O)C(O)(O)c1ccc(O)cc1O3					1.79	Dose-dependent effect	Ratio IC50 (Homo sapiens [7]): 1120; inhibition (Homo sapiens [8]): Active
C[C@H]1O[C@H](O[C@H]2[C@H](O)[C@@H](O)[C@@H](O[C@H]3[C@H](O)[C@@H](O)C(O)O[C@@H]3CO)O[C@@H]2CO)[C@H](O)[C@@H](O)[C@@H]1N[C@H]1C=C(CO)[C@@H](O)[C@H](O)[C@H]1O (stereo partly drawn) [ACARBOSE]					2000	Dose-dependent effect	inhibition (Homo sapiens [9]): 82.2%; inhibition (Homo sapiens [10]): 42.2%; inhibition (Homo sapiens [11]): 58.4%; inhibition (Homo sapiens [12]): 51.1%; inhibition (Homo sapiens [13]): 89.5%; inhibition (Homo sapiens [14]): 85.6%; inhibition (Homo sapiens [15]): 79.7%; inhibition (Homo sapiens [16]): 17.7%
O=c1c(-c2ccc(O)cc2)coc2cc(O)ccc12 [DAIDZEIN]					23	Dose-dependent effect	Ratio IC50 (Homo sapiens [7]): 87; inhibition (Homo sapiens [17]): Active; inhibition (Homo sapiens [18]): Active; inhibition (Homo sapiens [19]): 72.8%; inhibition (Homo sapiens [20]): 59%; inhibition (Homo sapiens [21]): 57.1%; inhibition (Homo sapiens [13]): 34.3%
O=c1c(-c2ccc(O)cc2)coc2cc(O[C@@H]3O[C@H](CO)[C@@H](O)[C@H](O)[C@H]3O)ccc12 [DAIDZIN]	84.8	77.3	66.8	41.2	178 to 254	Dose-dependent effect	
COc1ccc(-c2coc3cc(O[C@@H]4O[C@H](CO)[C@@H](O)[C@H](O)[C@H]4O)ccc3c2=O)cc1 [ONONIN]	74.9	56.3	31.6	29.4	423	Dose-dependent effect	
O=c1c(-c2ccc(O)cc2)coc2c([C@@H]3O[C@H](CO)[C@@H](O)[C@H](O)[C@H]3O)c(O)ccc12 [PUERARIN]	78.3	41.5	21.9	5.26	524	Dose-dependent effect	
